Test results as given in the supplement of paper PMC10307832.

What was measured:
Experiment in all cases: relative viability (nuclei count vs DMSO), 5 days (fraction); higher = more cells survive
[1] = compound: COc1cc2nc(N3CCCN(C)CC3)nc(NC3CCN(Cc4ccccc4)CC3)c2cc1OC + COc1cccc2cc(-c3nc([C@H]4CC[C@H](C(=O)O)CC4)n4ncnc(N)c34)[nH]c12 [OSI-027] (partner 0.5 µM)
Method in brief: (§1)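 Relative viability divides the nuclei count in treated wells by that in vehicle wells. Lung cancer cell lines were seeded in 1536-well plates, dosed by pin tool the next day, and fixed and stained after 5 days in one step with final 0.05% Triton X-100, 1% formaldehyde and 1 ug/ml Hoechst. Dosing was a single drug or a fixed anchor-drug dose plus five library-drug doses (not always all listed) in √10 steps, and values are medians of duplicate plates imaged at 4×.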

AZD6482 + Lapatinib = compound: Cc1cc([C@@H](C)Nc2ccccc2C(=O)O)c2nc(N3CCOCC3)cc(=O)n2c1 [AZD6482] + CS(=O)(=O)CCNCc1ccc(-c2ccc3ncnc(Nc4ccc(OCc5cccc(F)c5)c(Cl)c4)c3c2)o1 [Lapatinib] (partner 2 µM)
Method in brief: as §1

AZD6482 + Dasatinib = compound: Cc1cc([C@@H](C)Nc2ccccc2C(=O)O)c2nc(N3CCOCC3)cc(=O)n2c1 [AZD6482] + Cc1nc(Nc2ncc(C(=O)Nc3c(C)cccc3Cl)s2)cc(N2CCN(CCO)CC2)n1 [Dasatinib] (partner 0.075 µM)
Method in brief: as §1

[2] = compound: COc1cc2nc(N3CCCN(C)CC3)nc(NC3CCN(Cc4ccccc4)CC3)c2cc1OC + CS(=O)(=O)N1CCN(Cc2cc3nc(-c4cccc5[nH]ncc45)nc(N4CCOCC4)c3s2)CC1 [Pictilisib] (partner 1 µM)
Method in brief: as §1

Cell Line	relative viability ([1]; first compound 0.2 µM)	relative viability ([1]; first compound 0.6325 µM)	relative viability ([1]; first compound 2 µM)	relative viability ([1]; first compound 6.325 µM)	relative viability (AZD6482 + Lapatinib; first compound 0.253 µM)	relative viability (AZD6482 + Lapatinib; first compound 0.8 µM)	relative viability (AZD6482 + Lapatinib; first compound 2.53 µM)	relative viability (AZD6482 + Lapatinib; first compound 8 µM)	relative viability (AZD6482 + Dasatinib; first compound 0.08 µM)	relative viability (AZD6482 + Dasatinib; first compound 0.253 µM)	relative viability (AZD6482 + Dasatinib; first compound 0.8 µM)	relative viability (AZD6482 + Dasatinib; first compound 2.53 µM)	relative viability (AZD6482 + Dasatinib; first compound 8 µM)	relative viability ([2]; first compound 0.2 µM)	relative viability ([2]; first compound 0.6325 µM)	relative viability ([2]; first compound 2 µM)	relative viability ([2]; first compound 6.325 µM)	relative viability (AZD6482 + Lapatinib; first compound 0.08 µM)
NCI-H2347	0.461	0.304	0.452	0.472	0.946	0.988	0.653	0.763	0.271	0.244	0.262	0.298	0.281	0.702	0.686	0.574	0.549	–
NCI-H1993	0.534	0.57	0.529	0.553	0.791	–	–	0.784	0.514	0.543	0.442	0.348	0.542	0.709	0.858	0.894	0.811	0.779
NCI-H322M	0.546	0.504	0.595	0.423	0.441	0.561	0.357	0.495	0.261	0.249	0.27	0.207	0.242	0.489	0.604	0.486	0.548	0.53
NCI-H838	0.433	0.429	0.362	0.375	0.783	0.894	0.482	0.6	0.24	0.248	0.257	0.218	0.28	0.477	0.598	0.479	0.424	0.776
HARA	0.535	0.483	0.454	0.398	0.503	0.919	–	0.483	0.268	0.302	0.232	0.188	0.157	0.395	0.53	0.453	0.308	0.707
NCI-H2087	0.469	0.428	0.547	0.452	1.12	1.43	0.864	0.98	0.722	0.822	0.951	–	0.74	0.752	0.996	0.872	0.834	1.22
NCI-H1437	0.901	0.876	0.85	0.918	0.747	0.769	0.592	0.421	0.599	0.316	0.44	0.282	0.244	0.436	0.496	0.49	0.323	0.727
NCI-H1792	0.836	0.816	0.682	0.784	0.815	0.879	0.628	0.598	0.769	0.703	0.862	0.569	0.515	0.299	0.233	0.247	0.276	0.814
NCI-H650	0.532	0.483	0.508	0.329	–	0.948	0.454	0.534	0.446	–	0.453	0.292	0.319	0.959	0.707	1.03	0.562	0.999
COR-L23	0.882	0.735	0.802	0.765	0.948	1.15	0.734	0.893	0.338	0.374	0.47	0.292	0.326	0.843	0.701	0.931	0.772	0.938
COR-L 105	0.534	0.882	0.487	0.554	0.326	0.351	0.364	0.355	0.287	0.318	0.325	0.262	0.273	0.349	0.435	0.34	0.327	0.382
LK-2	0.197	0.221	0.196	0.214	0.645	0.959	0.767	0.815	0.349	0.286	0.327	0.26	0.221	0.621	0.565	0.669	0.632	1.13
201T	0.706	0.811	0.73	0.601	1.04	1.17	0.843	0.993	0.645	0.542	0.627	0.416	0.395	0.742	0.717	0.64	0.683	1.02
NCI-H596	0.771	0.786	0.866	0.667	0.953	1.06	0.873	0.853	0.7	0.586	0.601	0.514	0.642	0.396	0.432	0.392	0.359	0.722
H3255	0.513	0.534	0.587	0.692	0.221	0.263	0.182	0.152	0.339	0.342	0.476	0.345	0.322	0.487	0.397	0.529	0.422	0.194
NCI-H647	0.597	0.664	0.62	0.272	–	0.804	0.524	0.744	0.133	0.152	0.153	0.0999	0.096	–	0.583	0.567	0.254	0.843
NCI-H2023	0.363	0.508	0.364	0.126	0.74	0.798	0.424	0.422	0.454	0.494	0.566	0.3	0.423	0.204	0.279	0.211	0.0903	0.729
NCI-H23	0.637	0.578	0.707	0.503	0.848	1.32	0.644	0.855	0.746	0.952	0.511	0.572	0.368	0.438	0.491	0.574	0.362	1.03
